Data published in patent US20230150970A1, “AMINOPYRIMIDINE DERIVATIVES AND THEIR USE AS ARYL HYDROCARBON RECEPTOR MODULATORS” (DONG-A ST CO., LTD., priority 2020, published 2023).

Target: T1, AhR (Homo sapiens, UniProt P35869)
T1 sequence (P35869 11-848): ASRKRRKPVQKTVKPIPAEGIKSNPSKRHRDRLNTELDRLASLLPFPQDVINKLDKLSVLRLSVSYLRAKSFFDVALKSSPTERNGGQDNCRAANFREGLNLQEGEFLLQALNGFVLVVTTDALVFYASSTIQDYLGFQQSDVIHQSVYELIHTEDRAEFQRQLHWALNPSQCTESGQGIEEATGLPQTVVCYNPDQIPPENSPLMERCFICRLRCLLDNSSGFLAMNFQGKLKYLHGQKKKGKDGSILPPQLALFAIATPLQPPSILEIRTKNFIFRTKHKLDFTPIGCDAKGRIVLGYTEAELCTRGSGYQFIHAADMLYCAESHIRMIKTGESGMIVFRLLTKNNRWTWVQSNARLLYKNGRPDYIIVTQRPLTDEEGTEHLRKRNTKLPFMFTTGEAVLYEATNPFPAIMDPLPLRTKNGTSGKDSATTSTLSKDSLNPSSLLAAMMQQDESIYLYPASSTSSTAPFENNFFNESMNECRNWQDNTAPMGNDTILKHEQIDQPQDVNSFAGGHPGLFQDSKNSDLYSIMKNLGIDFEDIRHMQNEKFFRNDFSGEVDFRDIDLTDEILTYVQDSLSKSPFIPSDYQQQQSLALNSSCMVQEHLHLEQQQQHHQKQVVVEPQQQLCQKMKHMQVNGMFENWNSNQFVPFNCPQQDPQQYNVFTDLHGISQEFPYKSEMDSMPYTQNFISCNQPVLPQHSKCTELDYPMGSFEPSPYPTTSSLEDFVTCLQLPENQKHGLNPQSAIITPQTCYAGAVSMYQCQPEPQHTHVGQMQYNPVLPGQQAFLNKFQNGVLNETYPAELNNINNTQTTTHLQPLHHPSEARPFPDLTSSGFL
Assay: In Vitro Assay 1: XRE-luciferase reporter assay, antagonism in human cell line (HepG2)
Conditions: Assay 1: AhR-Luc Human Antagonism (IC50, nM), values marked *: kynurenine 50 μM, 6 hours
Description: In Vitro XRE-Luciferase Reporter Assay (In Vitro Assay 1, 2, 3) AhR activation leads the induction of target gene expression such as CYP1A1 and CYPIB1 by AhR binding to AhR-responsive DNA elements also known as xenobiotics responsive elements (XREs). The assay for measuring AhR activity herein is the luciferase assay using cell lines transfected with luciferase reporter plasmid containing XREs at the upstream of the reporter gene. Cells transfected with XRE-luciferase reporter (XRE-Luc), plasmid drive luciferase activity reflecting activation and inhibition of AhR in the cells. […] Kynurenine (an endogenous AhR agonist), was used to stimulate cells to test antagonistic properties of the compounds. The half-maximal inhibitory concentration (IC50), or half-maximal effective concentration (EC50), value was calculated using nonlinear regression (four parameters), with Prism8.0 software (GraphPad).
In Vitro Assay 1: Antagonism in Human Cell Line
HepG2 (human hepatoma cell line) cell line with a XRE-luciferase reporter either transiently or stably (Invivogen) were plated in complete medium and incubated at 37° C. in a CO2 incubator. After 24 hours, cells were treated with kynurenine (50* or 200 μM) alone (negative control) or with test compounds for 6 hours. Luciferase activity was measured with a commercial kit such as the Promega Luciferase kit or Invivogen Luciferase kit. Relative luciferase activity (Firefly/Nano-Luc) was used to calculate IC50 values. […] (IC50 values are grouped as A, B, C and D, whereby A: IC50<0.01 μM; B: 0.01<IC50<0.1 μM; C: 0.1<IC50<1.0 μM; D: IC50>1.0 μM)

Compound | IC50
OCC1CCCCN1c1cc(-c2ccc(Cl)cc2)nc(-c2cccnc2)n1 (centres unmarked) [Example 36, (1-(6-(4-chlorophenyl)-2-(pyridin-3-yl)pyrimidin-4-yl)piperidin-2-yl)methanol] | 10 to 100 nM
OCCC1CCCCN1c1cc(-c2ccc(Cl)cc2)nc(-c2cccnc2)n1 (centres unmarked) [Example 37, 2-(1-(6-(4-chlorophenyl)-2-(pyridin-3-yl)pyrimidin-4-yl)piperidin-2-yl)ethan-1-ol] | > 1000 nM
O[C@@H]1CCCN(c2cc(-c3ccc(Cl)cc3)nc(-c3cccnc3)n2)C1 [Example 38, (R)-1-(6-(4-chlorophenyl)-2-(pyridin-3-yl)pyrimidin-4-yl)piperidin-3-ol] | < 10 nM
OC1CCCN(c2cc(-c3ccc(Cl)cc3)nc(-c3cccnc3)n2)C1 (centres unmarked) [Example 39, 1-(6-(4-chlorophenyl)-2-(pyridin-3-yl)pyrimidin-4-yl)piperidin-3-ol] | 10 to 100 nM
OCC1CCCN(c2cc(-c3ccc(Cl)cc3)nc(-c3cccnc3)n2)C1 (centres unmarked) [Example 40, (1-(6-(4-chlorophenyl)-2-(pyridin-3-yl)pyrimidin-4-yl)piperidin-3-yl)methanol] | 10 to 100 nM
OC1CCN(c2cc(-c3ccc(Cl)cc3)nc(-c3cccnc3)n2)CC1 [Example 41, 1-(6-(4-chlorophenyl)-2-(pyridin-3-yl)pyrimidin-4-yl)piperidin-4-ol] | < 10 nM
OCCCC1CCN(c2cc(-c3ccc(Cl)cc3)nc(-c3cccnc3)n2)CC1 [Example 44, 3-(1-(6-(4-chlorophenyl)-2-(pyridin-3-yl)pyrimidin-4-yl)piperidin-4-yl)propan-1-ol] | < 10 nM
COC1CCN(c2cc(-c3ccc(Cl)cc3)nc(-c3cccnc3)n2)CC1 [Example 45, 4-(4-chlorophenyl)-6-(4-methoxypiperidin-1-yl)-2-(pyridin-3-yl)pyrimidine] | 10 to 100 nM
Clc1ccc(-c2cc(N3CCCCC3)nc(-c3cccnc3)n2)cc1 [Example 46, 4-(4-chlorophenyl)-6-(piperidin-1-yl)-2-(pyridin-3-yl)pyrimidine] | 100 to 1000 nM
CC1CCCCN1c1cc(-c2ccc(Cl)cc2)nc(-c2cccnc2)n1 (centres unmarked) [Example 47, 4-(4-chlorophenyl)-6-(2-methylpiperidin-1-yl)-2-(pyridin-3-yl)pyrimidine] | > 1000 nM
CC1CCCN(c2cc(-c3ccc(Cl)cc3)nc(-c3cccnc3)n2)C1 (centres unmarked) [Example 48, 4-(4-chlorophenyl)-6-(3-methylpiperidin-1-yl)-2-(pyridin-3-yl)pyrimidine] | > 1000 nM
CC1CCCC(C)N1c1cc(-c2ccc(Cl)cc2)nc(-c2cccnc2)n1 (centres unmarked) [Example 49, 4-(4-chlorophenyl)-6-(2,6-dimethylpiperidin-1-yl)-2-(pyridin-3-yl)pyrimidine] | > 1000 nM
CC1CC(C)CN(c2cc(-c3ccc(Cl)cc3)nc(-c3cccnc3)n2)C1 (centres unmarked) [Example 50, 4-(4-chlorophenyl)-6-(3,5-dimethylpiperidin-1-yl)-2-(pyridin-3-yl)pyrimidine] | > 1000 nM
FC1(F)CCCN(c2cc(-c3ccc(Cl)cc3)nc(-c3cccnc3)n2)C1 [Example 51, 4-(4-chlorophenyl)-6-(3,3-difluoropiperidin-1-yl)-2-(pyridin-3-yl)pyrimidine] | 100 to 1000 nM
FC(F)(F)C1CCCN(c2cc(-c3ccc(Cl)cc3)nc(-c3cccnc3)n2)C1 (centres unmarked) [Example 52, 4-(4-chlorophenyl)-2-(pyridin-3-yl)-6-(3-(trifluoromethyl)piperidin-1-yl)pyrimidine] | 100 to 1000 nM
CCC1CCCN(c2cc(-c3ccc(Cl)cc3)nc(-c3cccnc3)n2)C1 (centres unmarked) [Example 53, 4-(4-chlorophenyl)-6-(3-ethylpiperidin-1-yl)-2-(pyridin-3-yl)pyrimidine] | > 1000 nM
Clc1ccc(-c2cc(NC3CCNCC3)nc(-c3cccnc3)n2)cc1 [Example 54, 6-(4-chlorophenyl)-N-(piperidin-4-yl)-2-(pyridin-3-yl)pyrimidin-4-amine] | > 1000 nM
Clc1ccc(-c2cc(NCC3CCCNC3)nc(-c3cccnc3)n2)cc1 (centres unmarked) [Example 55, 6-(4-chlorophenyl)-N-(piperidin-3-ylmethyl)-2-(pyridin-3-yl)pyrimidin-4-amine] | > 1000 nM
Clc1ccc(-c2cc(NCC3CCNCC3)nc(-c3cccnc3)n2)cc1 [Example 56, 6-(4-chlorophenyl)-N-(piperidin-4-ylmethyl)-2-(pyridin-3-yl)pyrimidin-4-amine] | 100 to 1000 nM

Compound | IC50
CN1CCC(Nc2cc(-c3ccc(Cl)cc3)nc(-c3cccnc3)n2)CC1 [Example 57, 6-(4-chlorophenyl)-N-(1-methylpiperidin-4-yl)-2-(pyridin-3-yl)pyrimidin-4-amine] | > 1000 nM
Clc1ccc(-c2cc(NCCC3CCNCC3)nc(-c3cccnc3)n2)cc1 [Example 58, 6-(4-chlorophenyl)-N-(2-(piperidin-4-yl)ethyl)-2-(pyridin-3-yl)pyrimidin-4-amine] | > 1000 nM
NCC1CCCCN1c1cc(-c2ccc(Cl)cc2)nc(-c2cccnc2)n1 (centres unmarked) [Example 59, (1-(6-(4-chlorophenyl)-2-(pyridin-3-yl)pyrimidin-4-yl)piperidin-2-yl)methanamine] | > 1000 nM
N[C@@H]1CCCN(c2cc(-c3ccc(Cl)cc3)nc(-c3cccnc3)n2)C1 [Example 60, (R)-1-(6-(4-chlorophenyl)-2-(pyridin-3-yl)pyrimidin-4-yl)piperidin-3-amine] | > 1000 nM
N[C@H]1CCCN(c2cc(-c3ccc(Cl)cc3)nc(-c3cccnc3)n2)C1 [Example 61, (S)-1-(6-(4-chlorophenyl)-2-(pyridin-3-yl)pyrimidin-4-yl)piperidin-3-amine] | > 1000 nM
NCC1CCCN(c2cc(-c3ccc(Cl)cc3)nc(-c3cccnc3)n2)C1 (centres unmarked) [Example 62, (1-(6-(4-chlorophenyl)-2-(pyridin-3-yl)pyrimidin-4-yl)piperidin-3-yl)methanamine] | > 1000 nM
NC[C@@H]1CCCN(c2cc(-c3ccc(Cl)cc3)nc(-c3cccnc3)n2)C1 [Example 63, (S)-(1-(6-(4-chlorophenyl)-2-(pyridin-3-yl)pyrimidin-4-yl)piperidin-3-yl)methanamine] | > 1000 nM
NC1CCN(c2cc(-c3ccc(Cl)cc3)nc(-c3cccnc3)n2)CC1 [Example 64, 1-(6-(4-chlorophenyl)-2-(pyridin-3-yl)pyrimidin-4-yl)piperidin-4-amine] | 100 to 1000 nM
NCC1CCN(c2cc(-c3ccc(Cl)cc3)nc(-c3cccnc3)n2)CC1 [Example 65, (1-(6-(4-chlorophenyl)-2-(pyridin-3-yl)pyrimidin-4-yl)piperidin-4-yl)methanamine] | 100 to 1000 nM
O[C@@H]1CCC[C@@H]1Nc1cc(-c2ccc(Cl)cc2)nc(-c2cccnc2)n1 [Example 66, (1R,2S)-2-((6-(4-chlorophenyl)-2-(pyridin-3-yl)pyrimidin-4-yl)amino)cyclopentan-1-ol] | > 1000 nM
O[C@H]1CCC[C@@H]1Nc1cc(-c2ccc(Cl)cc2)nc(-c2cccnc2)n1 [Example 67, (1S,2S)-2-((6-(4-chlorophenyl)-2-(pyridin-3-yl)pyrimidin-4-yl)amino)cyclopentan-1-ol] | 100 to 1000 nM
O[C@@H]1CCCC[C@H]1Nc1cc(-c2ccc(Cl)cc2)nc(-c2cccnc2)n1 [Example 69, (1R,2R)-2-((6-(4-chlorophenyl)-2-(pyridin-3-yl)pyrimidin-4-yl)amino)cyclohexan-1-ol] | 100 to 1000 nM
Clc1ccc(-c2cc(N3CCOCC3)nc(-c3cccnc3)n2)cc1 [Example 71, 4-(6-(4-chlorophenyl)-2-(pyridin-3-yl)pyrimidin-4-yl)morpholine] | 10 to 100 nM
Clc1ccc(-c2cc(NCC3CNCCO3)nc(-c3cccnc3)n2)cc1 (centres unmarked) [Example 72, 6-(4-chlorophenyl)-N-(morpholin-2-ylmethyl)-2-(pyridin-3-yl)pyrimidin-4-amine] | > 1000 nM
Clc1ccc(-c2cc(N3CCC(N4CCOCC4)C3)nc(-c3cccnc3)n2)cc1 (centres unmarked) [Example 73, 4-(1-(6-(4-chlorophenyl)-2-(pyridin-3-yl)pyrimidin-4-yl)pyrrolidin-3-yl)morpholine] | > 1000 nM
Clc1ccc(-c2cc(N3CCSCC3)nc(-c3cccnc3)n2)cc1 [Example 74, 4-(6-(4-chlorophenyl)-2-(pyridin-3-yl)pyrimidin-4-yl)thiomorpholine] | 100 to 1000 nM
Clc1ccc(-c2cc(NCCCN3CCOCC3)nc(-c3cccnc3)n2)cc1 [Example 75, 6-(4-chlorophenyl)-N-(3-morpholinopropyl)-2-(pyridin-3-yl)pyrimidin-4-amine] | > 1000 nM
C[C@@H]1CNCCN1c1cc(-c2ccc(Cl)cc2)nc(-c2cccnc2)n1 [Example 76, (R)-4-(4-chlorophenyl)-6-(2-methylpiperazin-1-yl)-2-(pyridin-3-yl)pyrimidine] | > 1000 nM
C[C@@H]1CN(C(=O)c2ccccc2)CCN1c1cc(-c2ccc(Cl)cc2)nc(-c2cccnc2)n1 [Example 77, (R)-(4-(6-(4-chlorophenyl)-2-(pyridin-3-yl)pyrimidin-4-yl)-3-methylpiperazin-1-yl)(phenyl)methanone] | > 1000 nM
